# Measurements from patent US9079854B2 (priority 2007, dated 2015).
# “Also recorded” adds a separate entry of the source. Read-outs that look alike come from different tables or passages of the source.
# Tests used:
# exploratory behavior = assay: Open field chamber testing; format: in vivo, rat; conditions: 15 mg/kg i.p.; versus vehicle; scored for 60 minutes; rats
# Procedure: The automated open-field chamber (Med Associates ENV-515 Test Environment, St. Albans, Vt.) 43.2×43.2×30.5 cm (L×W×H) equipped with three pairs of 16 infrared arrays that continually monitored the animal's movement was used to determine potential CNS effects of compound of Example 6 and the vehicle in naïve rats. Rats were individually tested 15 min after i.p. drug administration. The infrared beams were set 2.5 cm apart horizontally and at a height of 3 cm above the floor, with the rearing array set at 12 cm from the floor. The area in the box was divided into 4 equal quadrants (zones), with data collected within each quadrant and across quadrants (zone entries). An ambulatory movement was defined as a motion of at least 5 cm and was coded by quadrant. Vertical movements were counted when the rat moved vertically a minimum of 12 cm from the floor. Zone entries were defined as an entry into a zone (from another zone). Entry into a zone was counted when the rat was far enough into the zone to break 2 sets of photoelectric beams for the new zone beams during an ambulatory movement.
# [1] = test system: Paclitaxel-induced neuropathy; assay: Prevention of paclitaxel-induced neuropathy; format: in vivo, rat; conditions: 15 mg/kg intraperitoneally 30 minutes prior to paclitaxel; rats
# Procedure: A mixture of saline and CREMOPHOR®ELP 10% was used as vehicle for paclitaxel. It was injected at a concentration of 1.0 mg/kg intraperitoneally to the chemotherapy-treated group of rats on 4 consecutive days for a final cumulative dose of 4 mg/kg to 18 rats.
# Assessment of neuropathic pain. Paw withdrawal thresholds were determined daily in both hind paws of each animal using calibrated von Frey monofilaments according to an up-down procedure. A series of von Frey filaments with exponentially incremental degrees of stiffness (0.4, 0.7, 1.2, 2.0, 3.6, 5.5, 8.5, and 15.1 g) was used to measure the 50% threshold for both hindpaw withdrawal in awake, unrestrained rats. Chaplan, S. R., Quantitative assessment of tactile allodynia in the rat paw, Journal of Neuroscience Methods, 1994, 53:55-63. […]
# Group 1 of rats received paclitaxel for four days, as described immediately above in subpart (A) titled “Paclitaxel-induced Neuropathy.” In group 2, a dose of 15 mg/kg of the compound of Example 6, injected intraperitoneally was administered 30 minutes prior to the administration of paclitaxel. […] Paw withdrawal thresholds were determined daily in both hind paws of each animal using calibrated von Frey monofilaments according to an up-down procedure as described immediately above in subpart (A) titled “Paclitaxel-induced Neuropathy.” The results are shown in FIG. 14.
# hCB2 receptor = target: T1, hCB2 receptor (Homo sapiens, UniProt P34972); assay: CB2 functional assay, [35S]GTP-γ-S binding; format: biochemical
# T1 construct: purchased ES-111-MG; host or cells: CHO membrane extracts
# T1 sequence (P34972 whole entry): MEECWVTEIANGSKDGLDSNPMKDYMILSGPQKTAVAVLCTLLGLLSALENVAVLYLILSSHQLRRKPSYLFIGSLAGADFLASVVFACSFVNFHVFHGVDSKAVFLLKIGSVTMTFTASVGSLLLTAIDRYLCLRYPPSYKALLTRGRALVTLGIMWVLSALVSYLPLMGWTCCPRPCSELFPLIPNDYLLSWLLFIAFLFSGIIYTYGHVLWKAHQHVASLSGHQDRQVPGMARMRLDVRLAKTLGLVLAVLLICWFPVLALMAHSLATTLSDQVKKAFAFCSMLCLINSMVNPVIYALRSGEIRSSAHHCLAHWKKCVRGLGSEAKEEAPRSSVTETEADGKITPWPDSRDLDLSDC
compound,measurement,setting,value
"CCCCCCN1C(=O)/C(=N\NC(=O)c2ccccc2)c2ccccc21 [Example 6, Benzoic acid [1-n-hexyl-2-oxo-1,2-dihydro-indol-3-ylidene]-hydrazide]","exploratory behavior in the open field (distance traveled, ambulatory time, vertical activity, zone entries)",exploratory behavior,No significant differences; also recorded: did not decrease the exploratory behavior
same,development of paclitaxel-induced peripheral neuropathy (paw withdrawal threshold),[1],prevented the development of neuropathic pain induced by paclitaxel
same,% Activation Average,hCB2 receptor; CB2 Functional Activity,68.81%
same,Compound Activity,hCB2 receptor; CB2 Functional Activity,Agonist
same,EC50,"hCB2 receptor; CB2 Functional Activity, read-out: EC50 (nM) for GTP Binding",63.4 nM
same,ratio EC50(CB1)/EC50(CB2),"hCB2 receptor; CB2 receptor selectivity, [35S]GTP-γ-S",14
same,EC50,"hCB2 receptor; Table 7, mean of two determinations, read-out: [35S]GTP-γ-S (hCB2) EC50 (nM ± SEM)",63.4 ± 1.3 nM
same,Emax,"hCB2 receptor; Table 7, relative to the efficacy of CP55940",68.8%
same,EC50,"hCB2 receptor; Table 9, mean of two determinations, read-out: [35S]GTP-γ-S hCB2 EC50 (nM ± SEM)",63.4 ± 1.3 nM
same,Emax,"hCB2 receptor; Table 9, relative to the efficacy of CP 55,940",68.8%
same,"times less potent compared to the reference compound CP55,940","hCB2 receptor; functional activity, [35S]GTP-γ-S",seven
